Like-named read-outs stand apart in the source and are kept apart here.
What was measured:
SARS-CoV-2 = format: cell-based; settings: for Number of copies of viral genome (MOI = 0.05): Vero E6, 48 h; for Inhibitory activity on viral RNA load: dependence on dose (in words) / Viral nucleic acid load in vero E6 cells infected with SARS-CoV-2 (in words): 48 h after infection
Vero E6 cells = experiment: Detection of drug cytotoxicity by CCK-8 kit; format: cell-based; settings: for Cell viability (% of negative control): 48 h
Experimental: The detection of drug cytotoxicity was performed by CCK-8 kit (Beoytime). Specific steps were as follows:
(1) 1×10^4 Vero E6 (ATCC) cells were inoculated into a 96-well plate and cultured at 37° C. for 8 hours.
(§1) (2) The test drug was diluted with DMSO to achieve an appropriate stock solution concentration, and then diluted with MEM medium (purchased from Gibco, Cat. No. 10370021) containing 2% FBS (purchased from Gibco, Cat. No. 16000044) to the same concentration as that for the drug treatment. The original medium in the 96-well plate was discarded, 100 μL of drug-containing MEM medium was added to the cells, and three replicate wells were made for each concentration. Negative controls (adding DMSO and medium to the cell wells without adding drug) and blank controls (no cells, adding DMSO and medium) were set. After the drug was added, the cells were cultured at 37° C. for 48 hours.
(3) 20 μL of CCK-8 solution (Beoytime) was added to the wells to be tested, mixed gently without generating air bubbles, and continued to incubate at 37° C. for 2 hours. OD450 was read on a microplate reader (purchased from Molecular Devices, model SpectraMax M5), and cell viability was calculated:
Cell viability (%)=(A(drug treatment group)−A(blank control))/(A(negative control)−A(blank control))×100%
wherein A represents reading of microplate reader.
as §1, with “of the” for “of”

SMILES | Number of copies of viral genome (MOI = 0.05) (SARS-CoV-2; 3.13 μM drug) | Number of copies of viral genome (MOI = 0.05) (SARS-CoV-2; 6.25 μM drug) | Number of copies of viral genome (MOI = 0.05) (SARS-CoV-2; 12.5 μM drug) | Number of copies of viral genome (MOI = 0.05) (SARS-CoV-2; 25 μM drug) | Number of copies of viral genome (MOI = 0.05) (SARS-CoV-2; 50 μM drug) | Inhibitory activity on viral RNA load: dependence on dose (in words) (SARS-CoV-2) | Viral nucleic acid load in vero E6 cells infected with SARS-CoV-2 (in words) (SARS-CoV-2) | Cell viability (% of negative control) (Vero E6 cells; 0.78 μM drug) | Cell viability (% of negative control) (Vero E6 cells; 1.56 μM drug) | Cell viability (% of negative control) (Vero E6 cells; 3.13 μM drug) | Cell viability (% of negative control) (Vero E6 cells; 6.25 μM drug) | Cell viability (% of negative control) (Vero E6 cells; 12.5 μM drug) | Cell viability (% of negative control) (Vero E6 cells; 25 μM drug) | Cell viability (% of negative control) (Vero E6 cells; 50 μM drug) | Cell viability (% of negative control) (Vero E6 cells; 100 μM drug) | Number of copies of viral genome (MOI = 0.05) (SARS-CoV-2; 100 μM drug) | Cell viability (% of negative control) (Vero E6 cells; 200 μM drug) | Toxic effect on the cells (in words) (Vero E6 cells; all the tested concentrations) | Number of copies of viral genome (MOI = 0.05) (SARS-CoV-2; 0.94 μM drug) | Number of copies of viral genome (MOI = 0.05) (SARS-CoV-2; 1.88 μM drug) | also measured
C=C1C(=O)O[C@@]23[C@H]1CC[C@@H](C)[C@@H]2CC[C@@]1(C)O[C@@H]31 [arteannuin B] | 99188163 copies | 98310684 copies | 13307075 copies | 342654 copies | 176411 copies | dose-dependent | effectively reduced viral nucleic acid load | 93.55 % of negative control | 90.63 % of negative control | 94.86 % of negative control | 102.66 % of negative control | 111.44 % of negative control | 95.10 % of negative control | 74.40 % of negative control | 26.24 % of negative control | – | – | – | – | – | Number of copies of viral genome (MOI = 0.05) (SARS-CoV-2; 1.56 μM drug): 99554711 copies; Inhibition of replication of SARS-CoV-2 virus genome in the infection supernatant (in words) (SARS-CoV-2; at 50 μM, 25 μM and 12.5 μM): effectively inhibit; Toxic effect on the cells (in words) (Vero E6 cells; at 25 μM or lower): no toxic effect; Toxic effect on the cells (in words) (Vero E6 cells; at 50 μM): a certain toxicity
CO[C@H]1O[C@@H]2O[C@@]3(C)CC[C@H]4[C@H](C)CC[C@@H]([C@H]1C)[C@@]24OO3 [artemether] | – | 49305413 copies | 68497905 copies | 32850309 copies | 26849476 copies | – | – | – | 107.12 % of negative control | 103.68 % of negative control | 115.71 % of negative control | 115.49 % of negative control | 118.96 % of negative control | 120.26 % of negative control | 130.18 % of negative control | 3326694 copies | 132.83 % of negative control | no toxic effect | – | – | Number of copies of viral genome (MOI = 0.05) (SARS-CoV-2; 200 μM drug): 250314 copies
C[C@@H]1CC[C@H]2[C@@H](C)C(=O)O[C@@H]3O[C@@]4(C)CC[C@@H]1[C@]32OO4 [artemisinin] | – | 79058074 copies | 72012135 copies | 61918172 copies | 31079912 copies | dose-dependent | effectively reduced viral nucleic acid load | – | 98.45 % of negative control | 101.55 % of negative control | 104.23 % of negative control | 112.55 % of negative control | 104.26 % of negative control | 110.71 % of negative control | 109.14 % of negative control | 37237188 copies | 97.14 % of negative control | no toxic effect | – | – | Number of copies of viral genome (MOI = 0.05) (SARS-CoV-2; 150 μM drug): 25440652 copies; Inhibition of replication of SARS-CoV-2 virus genome in the infection supernatant (in words) (SARS-CoV-2; at 150 μM, 100 μM and 50 μM): effectively inhibit
C[C@H]1[C@H](OC(=O)CCC(=O)O)O[C@@H]2O[C@@]3(C)CC[C@H]4[C@H](C)CC[C@@H]1[C@@]24OO3 [artesunate] | 170594446 copies | 113126147 copies | 111098018 copies | 70210200 copies | – | dose-dependent | effectively reduced viral nucleic acid load | 100.09 % of negative control | 99.91 % of negative control | 97.52 % of negative control | 100.64 % of negative control | 93.38 % of negative control | 84.24 % of negative control | 55.44 % of negative control | 21.71 % of negative control | – | – | – | 228511812 copies | 171362509 copies | Inhibition of replication of SARS-CoV-2 virus genome in the infection supernatant (in words) (SARS-CoV-2; at 25 μM, 12.5 μM and 6.25 μM): effectively inhibit; Toxic effect on the cells (in words) (Vero E6 cells; at 12.5 μM or lower): no toxic effect; Toxic effect on the cells (in words) (Vero E6 cells; at 25 μM): a slight toxicity
C[C@H]1[C@@H](O)O[C@@H]2O[C@@]3(C)CC[C@H]4[C@H](C)CC[C@@H]1[C@@]24OO3 [dihydroartemisinin] | 90162353 copies | 55425811 copies | 31485734 copies | 23363010 copies | – | – | – | 93.93 % of negative control | 98.80 % of negative control | 93.03 % of negative control | 100.38 % of negative control | 88.94 % of negative control | 66.36 % of negative control | 22.18 % of negative control | 2.33 % of negative control | – | – | – | 111625955 copies | 68962319 copies | Toxic effect on the cells (in words) (Vero E6 cells; at 6.25 μM or lower): no toxic effect; Toxic effect on the cells (in words) (Vero E6 cells; at 12.5 μM): a slight toxicity

From patent publication US20230293485A1, “APPLICATION OF ARTEMISININ COMPOUND IN TREATMENT OF CORONAVIRUS INFECTION” (ACADEMY OF MILITARY MEDICAL SCIENCES, priority 2020, published 2023)
